Test results: PubChem BioAssay AID2305 (GlaxoSmithKline (GSK), 2010)
Where “and” joins values, the source holds several entries; their conditions need not be identical. Equal values may be shown once.

tested on: P. falciparum 3D7 growth, pLDH absorbance; assay: blood-stage malaria parasite growth potency – strain 3D7, dose response (AID 2305)

Q: For `O=C(/C=C/c1ccc(Cl)c(Cl)c1)NCCCCCN1CCCN(C(=O)Nc2ccc(F)c(F)c2)CC1`, which IC50 is on record?
A: The IC50 was 800 nM.

Q: For `O=C(Cc1ccsc1)NCC(c1ccccc1Cl)c1c[nH]c2ccccc12` (centres undefined), which IC50 is on record?
A: The IC50 was 950 nM.

Q: With `CC(=O)c1ccc2cc(C(=O)NC3CCC(CCN4CCc5ccc(-c6noc(C)n6)cc5CC4)CC3)[nH]c2c1` (centres undefined) as the compound, how does the IC50 read?
A: Its IC50 is 950 nM.

Q: How did the IC50 turn out when `CCOc1cc(C)ccc1C1CCN(CCCCNC(=O)c2ccc(NC(=O)c3cc(Cl)cc(Cl)c3)cc2)CC1` was run?
A: Its IC50 is 360 nM.

Q: Which IC50 does the source give for `CC(=O)Nc1cccc(Nc2nccc(-c3c(-c4cccc(NC(=O)c5c(F)cccc5F)c4)nn4ncccc34)n2)c1` here?
A: Its IC50 is 180 nM.

Q: With `COc1ccc(Nc2cc(C)nc(Nc3ccc(NC(C)=O)cc3)n2)cc1` as the compound, how does the IC50 read?
A: Its IC50 is 860 nM.

Q: Which IC50 does the source give for `CCCCCc1cc(O)c2c(c1)OC(C)(C)CC2C1=CCN(Cc2ccccc2)CC1` (centres undefined) here?
A: The IC50 was 770 nM.

Q: With `Cc1cc2cc(NC(=O)Nc3ccnc4ccccc34)ccc2n1C` as the compound, how does the IC50 read?
A: The IC50 was 1090 nM.

Q: For `COc1ccc2ncc(F)c(CCN3CCC(NCc4cc(Br)c5c(c4)OCCO5)CC3)c2n1`, which IC50 is on record?
A: The IC50 was 190 nM.

Q: With `COc1cc(NC(=O)c2cccs2)c(C(=O)NCc2ccc(C)cc2)cc1OC` as the compound, how does the IC50 read?
A: Its IC50 is 1360 nM.

Q: With `CCC(=O)Nc1nnc(Cc2ccc(OC)c(OC)c2)s1` as the compound, how does the IC50 read?
A: Its IC50 is 910 nM.

Q: Which IC50 does the source give for `CNC(=O)c1ccccc1Nc1nc(Nc2ccc(C(=O)O)cc2)ncc1Cl` here?
A: Its IC50 is 950 nM.

Q: With `O=C(NCCCCN1CCC(c2ccc3c(c2OCCCO)CCCC3)CC1)c1ccc(-c2ccc(C(F)(F)F)cc2)cc1` as the compound, how does the IC50 read?
A: Its IC50 is 720 nM.

Q: For `CCOc1ccc(Cc2c(C)nc3nc(N)nc(N)c3c2C)cc1`, which IC50 is on record?
A: The IC50 was 1060 nM.

Q: For `COc1ccc2nc(-c3cc(-c4ccc(NC(C)=O)cc4)cnc3N)[nH]c2c1`, which IC50 is on record?
A: Its IC50 is 1240 nM.

Q: `O=C(C1COc2ccccc2O1)N(CCCn1ccnc1)Cc1csc(-c2ccc(CNCc3ccccc3)cc2)n1` (centres undefined) was tested. Which IC50 did it give?
A: Its IC50 is 620 nM.

Q: For `O=C(Nc1ccc(C(=O)N(Cc2ccc3c(c2)OCO3)C2CCCC2)cc1)c1cccs1`, which IC50 is on record?
A: The IC50 was 650 nM.

Q: `CN(C)c1ccc(NC(=O)Nc2ccnc3ccc(Br)cc23)cc1` was tested. Which IC50 did it give?
A: The IC50 was 870 nM.

Q: How did the IC50 turn out when `NC(=O)c1ccccc1Nc1nc(Nc2ccn[nH]2)ncc1Cl` was run?
A: The IC50 was 960 nM.

Q: With `Cc1ccc(Nc2nc(C)cc(N3CCN(c4ccccc4)CC3)n2)cc1` as the compound, how does the IC50 read?
A: Its IC50 is 1530 nM.

Q: Which IC50 does the source give for `COc1cccc2cc(C(=O)N[C@@H](CC(C)C)C(=O)N[C@H](/C=N/N3CC(=O)NC3=O)CC(C)C)oc12` here?
A: Its IC50 is 920 nM.

Q: Which IC50 does the source give for `O=C(/C=C/c1ccc(Cl)c(Cl)c1)NC1CCC(CN2CCC(c3c[nH]c4ccc(O)cc34)CC2)CC1` (centres undefined) here?
A: The IC50 was 140 nM and 420 nM.

Q: With `N#Cc1cccc(NC(=O)Nc2ccc(CC(=O)N3CCc4cc(Cl)c(N5CCN(C/C=C/c6ccccc6)CC5)cc43)cc2)c1` as the compound, how does the IC50 read?
A: Its IC50 is 870 nM.

Q: Which IC50 does the source give for `O=C(NCCCCCN1CCCN(C(=O)Nc2ccc(Cl)c(C(F)(F)F)c2)CC1)[C@@H]1C[C@H]1c1ccc(Cl)c(Cl)c1` here?
A: The IC50 was 850 nM.

Q: For `COc1cc(OC)c(OC)cc1CN1CCC2(CC1)CN(Cc1ccc(Cl)c(Cl)c1)C(=O)O2`, which IC50 is on record?
A: The IC50 was 810 nM.

Q: With `COCCCn1c(=N)c(C(=O)NCCc2ccc(OC)cc2)cc2c(=O)n3cccc(C)c3nc21` as the compound, how does the IC50 read?
A: The IC50 was 1030 nM.

Q: For `CS(=O)(=O)NCCCNCc1ccc(-c2ccc(-c3nc4ccc(C(F)(F)F)cc4[nH]3)s2)cc1`, which IC50 is on record?
A: Its IC50 is 510 nM.

Q: `N#Cc1ccc2c(c1)CN(CCCCNC(=O)c1ccc(-c3ccccc3)cc1)CC2` was tested. Which IC50 did it give?
A: Its IC50 is 890 nM.

Q: How did the IC50 turn out when `CCc1ccc(NC(=O)C=NN=C(N)N)cc1` was run?
A: Its IC50 is 900 nM.

Q: How did the IC50 turn out when `Cc1ccc(C)c(C=CC(=O)NC2CCC(CN3CCC(c4c[nH]c5ccccc45)CC3)CC2)c1` (centres undefined) was run?
A: The IC50 was 760 nM and 700 nM.

Q: How did the IC50 turn out when `CCCCc1ccc(NC(=O)Nc2cccc(CCNCc3ccccc3)c2)cc1` was run?
A: Its IC50 is 880 nM.

Q: How did the IC50 turn out when `CC1(CCc2ccccc2)N=C(N)N(Cc2ccccc2)C(=O)C1c1ccc(Cl)c(Cl)c1` (centres undefined) was run?
A: The IC50 was 810 nM.

Q: With `Clc1cc(Cl)c2cc(CN[C@H]3CCC[C@@H]3CNc3nc4ccccc4[nH]3)[nH]c2c1` as the compound, how does the IC50 read?
A: Its IC50 is 270 nM.

Q: With `Cc1cc(N[C@@H](Cc2ccccc2)C(=O)NCCc2ccccc2)nc(NCCOc2ccccc2)n1` as the compound, how does the IC50 read?
A: Its IC50 is 1000 nM.

Q: `COc1ccc2nc(C)cc(Nc3ccc(N4CCN(C)CC4)cc3)c2c1` was tested. Which IC50 did it give?
A: Its IC50 is 790 nM.

Q: How did the IC50 turn out when `CC(C)Oc1cc2c(cc1NS(=O)(=O)c1ccc(-c3cccs3)cc1)CCN(C)CC2` was run?
A: The IC50 was 960 nM.

Q: With `Nc1cccc(CNCc2ccc(-c3ccc(-c4nc5ccc(C(F)(F)F)cc5[nH]4)s3)cc2)c1` as the compound, how does the IC50 read?
A: Its IC50 is 440 nM.

Q: How did the IC50 turn out when `COc1ccc2ncc(F)c(CCN3CCC(CNC(=O)C(=O)c4c[nH]c5ccccc45)CC3)c2n1` was run?
A: Its IC50 is 390 nM.

Q: Which IC50 does the source give for `CC12CCC(C(=O)N(CC(O)Cn3c4ccc(Cl)cc4c4cc(Cl)ccc43)C1=O)C2(C)C` (centres undefined) here?
A: The IC50 was 840 nM.

Q: For `N#Cc1cccc(C(=O)Nc2ccc(-c3ccc(CN4CCCC4)cc3)cc2)c1`, which IC50 is on record?
A: The IC50 was 1150 nM.

Q: For `CCn1c(Cc2ccccc2)nnc1Sc1ccc([N+](=O)[O-])c(C#N)c1`, which IC50 is on record?
A: The IC50 was 1010 nM.

Q: `O=C(Nc1ccc(Oc2cccnc2)cc1)C1CCN(Cc2cc(Cl)ccc2O)CC1` was tested. Which IC50 did it give?
A: The IC50 was 1350 nM.

Q: How did the IC50 turn out when `COc1ccc(-c2cccc(NC(=O)c3cccc(Cl)c3)c2)cc1CN1CCN(C)CC1` was run?
A: Its IC50 is 760 nM.

Q: Which IC50 does the source give for `O=C(/C=C/c1ccc(Cl)c(Cl)c1)NCCCCCN1CCCN(C(=O)Nc2cccc(C(F)(F)F)c2)CC1` here?
A: The IC50 was 870 nM.

Q: For `Cc1ccnc(-n2c(C)cc(C=C3SC(=Nc4ccccc4)N(Cc4ccco4)C3=O)c2C)c1`, which IC50 is on record?
A: Its IC50 is 240 nM.

Q: With `CCCCCCC(C)c1cc(O)c2c(c1)OC(C)(C)c1ccncc1-2` (centres undefined) as the compound, how does the IC50 read?
A: Its IC50 is 800 nM.

Q: Which IC50 does the source give for `CC1(C)N=C(N)N=C(N)N1CCc1ccccc1` here?
A: Its IC50 is 50 nM.

Q: `O=C(NC1CCCCC1)N(Cc1cccc(-c2ccc(CNCCc3ccccc3)cc2)c1)C1CCN(Cc2ccccc2)CC1` was tested. Which IC50 did it give?
A: The IC50 was 650 nM.

Q: How did the IC50 turn out when `Cc1noc(-c2ccccc2)c1NC(=O)NC1CCN(CCCCCNC(=O)/C=C/c2ccc(Cl)c(Cl)c2)CC1` was run?
A: Its IC50 is 990 nM.

Q: For `CC(=O)Nc1cccc(C(=O)Nc2ccc(-c3ccc(-c4nc5c(C)cccc5[nH]4)s3)cc2)c1`, which IC50 is on record?
A: The IC50 was 1740 nM.

Q: For `Cc1ccc(-n2cc(CNCC3CCN(CCO)CC3)c(-c3ccc(F)cc3)n2)cc1`, which IC50 is on record?
A: The IC50 was 2000 nM.

Q: `O=C(Nc1cccc(CN2CCCN(Cc3ccc(O)cc3)CC2)c1)c1cc2ccccc2s1` was tested. Which IC50 did it give?
A: Its IC50 is 360 nM.

Q: Which IC50 does the source give for `CCCN1CCN(CCCCNc2c3ccccc3nc3ccccc23)CC1` here?
A: The IC50 was 410 nM.

Q: `CC(C)C[C@H](Nc1ccc(C#N)c2ccccc12)C(=O)N[C@@H]1CCCc2ccccc21` was tested. Which IC50 did it give?
A: Its IC50 is 760 nM.

Q: For `COc1ccc(/C=C/c2ccc(-c3c(C)[nH]c(C)c(Cl)c3=O)cc2)cc1OC`, which IC50 is on record?
A: The IC50 was 280 nM.

Q: How did the IC50 turn out when `O=C(/C=C/c1ccc(Cl)c(Cl)c1)NCCCCCN1CCC(c2c[nH]c3cc(O)ccc23)CC1` was run?
A: The IC50 was 750 nM.

Q: How did the IC50 turn out when `O=C(/C=C/c1cccs1)NCC(NCCCNc1cc(=O)c2ccccc2[nH]1)c1cc(Br)cc(Br)c1` (centres undefined) was run?
A: Its IC50 is 890 nM.

Q: With `O=C(Nc1ccc(-c2cccc(-c3nc4ccc(F)cc4[nH]3)c2)cc1)Nc1ccc(Cl)c(Cl)c1` as the compound, how does the IC50 read?
A: Its IC50 is 650 nM.

Q: How did the IC50 turn out when `O=C(Cc1ccccc1)NC(c1ccco1)c1cc(Cl)c2cccnc2c1O` (centres undefined) was run?
A: Its IC50 is 690 nM.

Q: `OC(CN1CCN(C2CCCCC2)CC1)Cn1c2ccccc2c2cc(Br)ccc21` (centres undefined) was tested. Which IC50 did it give?
A: Its IC50 is 860 nM.

Q: For `CC1=C(C(=O)Nc2ccccc2)C(c2ccc([N+](=O)[O-])cc2)n2ncc(C(=O)Nc3ccccc3)c2N1` (centres undefined), which IC50 is on record?
A: The IC50 was 1240 nM.

Q: How did the IC50 turn out when `CCCC(C)NC(=O)[C@H](CC1CCCCC1)NC(=O)c1ccc(O)c(-c2ccc(OC)cc2)c1` (some centres undefined) was run?
A: Its IC50 is 1130 nM.

Q: With `COc1cccc(CCN(Cc2ccccc2-c2ccc(CNC3CC(C)(C)NC(C)(C)C3)cc2)C(=O)NC2CCCCC2)c1` as the compound, how does the IC50 read?
A: Its IC50 is 930 nM.

Q: Which IC50 does the source give for `CCCCCCN1CCC(NCc2ccc(C)cc2)CC1` here?
A: The IC50 was 860 nM.

Q: Which IC50 does the source give for `Cc1cc2nc(-c3ccc(/C=C/C(=O)NCCc4ccccc4)cc3)[nH]c2cc1C` here?
A: The IC50 was 780 nM.

Q: For `CC(CN1CCN(C)CC1)C(=O)Nc1cccc(-c2ccc(-c3nc4ccc(F)cc4[nH]3)cc2)c1` (centres undefined), which IC50 is on record?
A: The IC50 was 810 nM.

Q: `Cc1ccc(NC(=O)NC2CCN(c3ccnc4ccccc34)C2)cc1` (centres undefined) was tested. Which IC50 did it give?
A: Its IC50 is 710 nM.

Q: For `O=C(NC=Nc1cc([N+](=O)[O-])c(-c2ccncc2)n1-c1ccccc1)c1cccc(O)c1`, which IC50 is on record?
A: The IC50 was 330 nM.

Q: Which IC50 does the source give for `CCCC(C(=O)OCCNC)(c1ccccc1)c1ccccc1` here?
A: Its IC50 is 890 nM.
